In patent US20250051359A1, “MACROCYCLIC 2-AMINO-BUT-3-ENAMIDES AS INHIBITORS OF MCL-1” (JANSSEN PHARMACEUTICA NV, priority 2021, published 2025):

Key:
[1] = target: Myeloid Cell Leukemia 1 (Mcl-1) (Homo sapiens, UniProt Q07820); assay: Terbium labeled Mcl-1 HTRF binding assay, displacement of Cy5-labeled BIM BH3 peptide; conditions: 25 pM Tb-Mcl-1, 8 nM Cy5 Bim peptide, 60 min at room temperature, read-out: Tb-MCL1 Ki
Experimental: Terbium labeled Myeloid Cell Leukemia 1(Mcl-1) homogeneous time-resolved fluorescence (HTRF) binding assay utilizing the BIM BH3 peptide (H2N—(C/Cy5Mal) WIAQELRRIGDEFN-OH) as the binding partner for Mcl-1.
This assay evaluated inhibition of the BH3 domain: Mcl-1 interaction by measuring the displacement of Cy5-labeled BIM BH3 peptide (H2N—(C/Cy5Mal) WIAQELRRIGDEFN-OH) in the HTRF assay format.
The following assay and stock buffers were prepared for use in the assay: (a) Stock buffer: 10 mM Tris-HCl, pH=7.5+150 mM NaCl, filtered, sterilized, and stored at 4° C.; and (b) 1× assay buffer, where the following ingredients were added fresh to stock buffer: 2 mM dithiothreitol (DTT), 0.0025% Tween-20, 0.1 mg/mL bovine serum albumin (BSA). The 1×Tb-Mcl-1+Cy5 Bim peptide solution was prepared by diluting the protein stock solution using the 1× assay buffer (b) to 25 pM Tb-Mel-1 and 8 nM Cy5 Bim peptide.
Using the Acoustic ECHO, 100 nL of 100× test compound(s) were dispensed into individual wells of a white 384-well Perkin Elmer Proxiplate, for a final compound concentration of 1× and final DMSO concentration of 1%. Inhibitor control and neutral control (NC, 100 nL of 100% DMSO) were stamped into columns 23 and 24 of assay plate, respectively. Into each well of the plate was then dispensed 10 μL of the 1×Tb-Mcl-1+Cy5 Bim peptide solution. The plate was centrifuged with a cover plate at 1000 rpm for 1 minute, then incubated for 60 minutes at room temperature with plates covered.
The TR-FRET signal was read on an BMG PHERAStar FSX MicroPlate Reader at room temperature using the HTRF optic module (HTRF: excitation: 337 nm, light source: laser, emission A: 665 nm, emission B: 620 nm, integration start: 60 μs, integration time: 400 μs).
The BMG PHERAStar FSX MicroPlate Reader was used to measure fluorescence intensity at two emission wavelengths—665 nm and 620 nm—and report relative fluorescence units (RFU) for both emissions, as well as a ratio of the emissions (665 nm/620 nm)*10,000. The RFU values were normalized to percent inhibition as follows:
% inhibition(((NC−IC)−(compound−IC))(NC−IC))*100
where IC (inhibitor control, low signal)=mean signal of 1×Tb-MCl-1+Cy5 Bim peptide+inhibitor control or 100% inhibition of Mcl-1; NC (neutral control, high signal)=mean signal 1×Tb-MCl-1+Cy5 Bim peptide with DMSO only or 0% inhibition An 11-point dose response curve was generated to determine IC50 values (using GenData) based on the following equation:
where Y=% inhibition in the presence of X inhibitor concentration; Top=100% inhibition derived from the IC (mean signal of Mcl-1+inhibitor control); Bottom=0% inhibition derived from the NC (mean signal of Mcl-1+DMSO); Hillslope=Hill coefficient; and IC50=concentration of compound with 50% inhibition in relation to top/neutral control (NC).
Representative compounds of the present invention were tested according to the procedure as described above, with results as listed in the Table below (n.d. means not determined).

[2] = system: MOLP-8 human multiple myeloma cell line; assay: Caspase-Glo 3/7 apoptosis induction assay in MOLP-8 cells; type: cell-based; conditions: caspase-3/7 activity, 2 hours at 37° C., averaged over all runs on all batches, read-out: MOLP8 AC50
Excerpt: MCL-1 is a regulator of apoptosis and is highly over-expressed in tumor cells that escape cell death. The assay evaluates the cellular potency of small-molecule compounds targeting regulators of the apoptosis pathway, primarily MCL-1, Bfl-1, Bcl-2, and other proteins of the Bcl-2 family. Protein-protein inhibitors disrupting the interaction of anti-apoptotic regulators with BH3-domain proteins initiate apoptosis.
The Caspase-Glo® 3/7 Assay is a luminescent assay that measures caspase-3 and −7 activities in purified enzyme preparations or cultures of adherent or suspension cells. The assay provides a proluminescent caspase-3/7 substrate, which contains the tetrapeptide sequence DEVD. This substrate is cleaved to release aminoluciferin, a substrate of luciferase used in the production of light. Addition of the single Caspase-Glo® 3/7 Reagent in an “add-mix-measure” format results in cell lysis, followed by caspase cleavage of the substrate and generation of a “glow-type” luminescent signal.
This assay uses the MOLP-8 human multiple myeloma cell line, which is sensitive to MCL-1 inhibition.
Cell cultures were maintained between 0.2 and 2.0×10^6 cells/mL. The cells were harvested by collection in 50 mL conical tubes. The cells were then pelleted at 500 g for 5 mins before removing supernatant and resuspension in fresh pre-warmed culture medium. The cells were counted and diluted as needed.
The assay reagent was prepared by transferring the buffer solution to the substrate vial and mixing. The solution may be stored for up to 1 week at 4° C. with negligible loss of signal.
Compounds were delivered in assay-ready plates (Proxiplate) and stored at −20° C.
Assays always include 1 reference compound plate containing reference compounds. The plates were spotted with 40 nL of compounds (0.5% DMSO final in cells; serial dilution; 30 μM highest conc. 1/3 dilution, 10 doses, duplicates). The compounds were used at room temperature and 4 μL of pre-warmed media was added to all wells except column 2 and 23. The negative control was prepared by adding 1% DMSO in media. The positive control was prepared by adding the appropriate positive control compound in final concentration of 60 μM in media. The plate was prepared by adding 4 μL negative control to column 23, 4 μL positive control to column 2 and 4 μL cell suspension to all wells in the plate. The plate with cells was then incubated at 37° C. for 2 hours. The assay signal reagent is the Caspase-Glo solution described above, and 8 μL was added to all wells. The plates were then sealed and measured after 30 minutes.
The activity of a test compound was calculated as percent change in apoptosis induction as follows: • LC=median of the Low Control values • =Central Reference in Screener • =DMSO • =[…] • HC=Median of the High Control values • =Scale Reference in Screener • =30 μM of positive control • =100% apoptosis induction
% Effect (AC50)=100−((sample−LC)/(HC−LC))*100
% Control=(sample/HC)*100
% Control min=((sample−LC)/(HC−LC))*100

Sequence of Myeloid Cell Leukemia 1 (Mcl-1) (Q07820 whole entry): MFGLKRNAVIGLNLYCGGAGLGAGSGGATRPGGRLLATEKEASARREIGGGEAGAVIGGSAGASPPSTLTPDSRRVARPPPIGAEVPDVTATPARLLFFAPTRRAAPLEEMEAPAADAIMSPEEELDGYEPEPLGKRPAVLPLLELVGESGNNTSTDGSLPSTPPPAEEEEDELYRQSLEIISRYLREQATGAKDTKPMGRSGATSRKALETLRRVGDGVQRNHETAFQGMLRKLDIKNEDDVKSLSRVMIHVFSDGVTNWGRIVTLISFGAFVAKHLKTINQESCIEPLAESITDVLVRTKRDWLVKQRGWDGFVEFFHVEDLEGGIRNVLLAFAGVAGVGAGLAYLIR

SMILES | Ki [1] [nM] | AC50 [2] [nM]
C[C@@H]1[C@@H](C)C/C=C/[C@H](C(=O)N(C)CCC2CCOCC2)N2CCC[C@H]2CN2C[C@@]3(CCCc4cc(Cl)ccc43)COc3ccc(cc32)C(=O)NS1(=O)=O [Compound 2] | 0.058 | 130
C[C@@H]1[C@@H](C)C/C=C/[C@H](C(=O)N(C)C)N2CCC[C@H]2CN2C[C@@]3(CCCc4cc(Cl)ccc43)COc3ccc(cc32)C(=O)NS1(=O)=O [Compound 4] | 0.142 | 180
C[C@@H]1[C@@H](C)C/C=C/[C@H](C(=O)N(C)CC2CCOCC2)N2CCC[C@H]2CN2C[C@@]3(CCCc4cc(Cl)ccc43)COc3ccc(cc32)C(=O)NS1(=O)=O [Compound 3] | 0.027 | 81
CC1CC=CC(C(=O)N(C)CCN2CCOCC2)N2CCCC2CN2CC3(CCCc4cc(Cl)ccc43)COc3ccc(cc32)C(=O)NS(=O)(=O)C1C (centres unmarked) [Compound 5] | 0.024 | 180
C[C@@H]1[C@@H](C)C/C=C/[C@@H](C(=O)N2CCOCC2)N2CC[C@H]2CN2C[C@@]3(CCCc4cc(Cl)ccc43)COc3ccc(cc32)C(=O)NS1(=O)=O [Compound 9] | 0.196 | 660
C[C@@H]1[C@@H](C)C/C=C/[C@H](C(=O)N2CCOCC2)N2CCC[C@H]2CN2C[C@@]3(CCCc4cc(Cl)ccc43)COc3ccc(cc32)C(=O)NS1(=O)=O [Compound 7] | 0.089 | 360
C[C@@H]1[C@@H](C)C/C=C/[C@@H](C(=O)N2CCOCC2)N2CCC[C@H]2CN2C[C@@]3(CCCc4cc(Cl)ccc43)COc3ccc(cc32)C(=O)NS1(=O)=O [Compound 6] |  | 1950
C[C@@H]1[C@@H](C)C/C=C/[C@H](C(=O)N2CCOCC2)N2CC[C@H]2CN2C[C@@]3(CCCc4cc(Cl)ccc43)COc3ccc(cc32)C(=O)NS1(=O)=O [Compound 8] | 0.705 | 340
COCCN(CCOC)C(=O)[C@H]1/C=C/C[C@H](C)[C@@H](C)S(=O)(=O)NC(=O)c2ccc3c(c2)N(C[C@@H]2CCCN21)C[C@@]1(CCCc2cc(Cl)ccc21)CO3 [Compound 1] | 0.03 | 56
